{"source": "paper PMC6391272", "about": "“Rex in Caldicellulosiruptor bescii: Novel regulon members and its effect on the production of ethanol and overflow metabolites” (MicrobiologyOpen, 2018)", "biological_target": "T1, Rex (recombinant Rex, rRex) (Caldicellulosiruptor bescii, UniProt B9MPL7)", "T1 construct": "E. coli T7 Express; purified with IMPACT kit protocol", "T1 sequence (B9MPL7 1-217)": "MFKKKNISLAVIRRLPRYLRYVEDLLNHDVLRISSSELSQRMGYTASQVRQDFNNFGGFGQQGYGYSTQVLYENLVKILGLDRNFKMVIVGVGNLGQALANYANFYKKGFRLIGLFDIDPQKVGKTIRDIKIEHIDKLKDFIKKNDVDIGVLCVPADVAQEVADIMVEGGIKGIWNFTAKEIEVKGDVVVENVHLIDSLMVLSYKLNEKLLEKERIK", "assay": "electromobility shift assay (biotin-labelled […] bp operator dsDNA)", "settings": "room temperature, 30 min; loss of operator DNA binding; NADH/NAD+ cofactor pool 1-100 umol/L", "data": [{"smiles": "NC(=O)C1=CN([C@@H]2O[C@H](COP(=O)(O)OP(=O)(O)OC[C@H]3O[C@@H](n4cnc5c(N)ncnc54)[C@H](O)[C@@H]3O)[C@@H](O)[C@H]2O)C=CC1", "note": "[NADH]", "values": [{"measurement": "electromobility shift assay (biotin-labelled 50 bp operator dsDNA)", "result": "DNA binding by Rex is disrupted by NADH and is sensitive to NADH/NAD ^+ ratio"}]}]}
